Results on three molecules are retold here after ChEMBL document CHEMBL5649166, “RIP3 induces apoptosis independent of pronecrotic kinase activity” (Mol Cell, 2014).

The test system of one test is Neutrophil. The test can be described thus: Inhibition of TNF-alpha induced necroptosis in human neutrophil cells assessed as increase in cell viability incubated for 18 hrs in presence of zVAD and SMAC007 by Cell Titer-Glo luminescent cell viability assay. It counts as functional, cell-based. Background: Cellular ATP, detected with luciferase, serves as a proxy for viable cell number.

Test [1] concerns the target Dual specificity mitogen-activated protein kinase kinase 1 (Homo sapiens) (UniProt Q02750). The test can be described thus: Residual activity of human MEK1 using ERK2 (K52R) as substrate at 1 uM in presence of 32P-ATP by Hotspot assay relative to control.
The target of test [2] is Serine/threonine-protein kinase Nek6 (Homo sapiens) (UniProt Q9HC98). The test can be described thus: Inhibition of human NEK6 using casein as substrate at 1 uM in presence of 32P-ATP by Hotspot assay relative to control; values are per cent of control.
In test [3] the target is Casein kinase II subunit alpha (Homo sapiens) (UniProt P68400). The test can be described thus: Inhibition of human CK2a using RRRDDDSDDD as substrate at 1 uM in presence of 32P-ATP by Hotspot assay relative to control; values are per cent of control.
Sequence of Casein kinase II subunit alpha (Homo sapiens) (P68400 whole entry, looked up): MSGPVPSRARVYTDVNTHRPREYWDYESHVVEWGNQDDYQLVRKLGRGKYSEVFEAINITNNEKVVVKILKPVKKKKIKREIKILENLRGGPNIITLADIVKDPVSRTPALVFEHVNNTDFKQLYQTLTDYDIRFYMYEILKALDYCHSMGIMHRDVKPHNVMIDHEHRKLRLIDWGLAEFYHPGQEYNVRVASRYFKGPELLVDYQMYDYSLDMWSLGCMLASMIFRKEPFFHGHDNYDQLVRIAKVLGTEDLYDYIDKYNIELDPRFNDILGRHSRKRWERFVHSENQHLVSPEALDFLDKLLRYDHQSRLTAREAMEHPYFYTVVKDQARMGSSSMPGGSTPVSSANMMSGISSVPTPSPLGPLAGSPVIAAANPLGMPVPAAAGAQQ
Test [4] addresses Serine/threonine-protein kinase PAK 6 (Homo sapiens) (UniProt Q9NQU5). The test can be described thus: Inhibition of human PAK6 using RRRLSFAEPG as substrate at 1 uM in presence of 32P-ATP by Hotspot assay relative to control; values are per cent of control.
For test [5], the target named is Ribosomal protein S6 kinase alpha-2 (Homo sapiens) (UniProt Q15349). The test can be described thus: Inhibition of human RSK3 using KKLNRTLSVA as substrate at 1 uM in presence of 32P-ATP by Hotspot assay relative to control; values are per cent of control.
Sequence of Ribosomal protein S6 kinase alpha-2 (Homo sapiens) (Q15349 whole entry): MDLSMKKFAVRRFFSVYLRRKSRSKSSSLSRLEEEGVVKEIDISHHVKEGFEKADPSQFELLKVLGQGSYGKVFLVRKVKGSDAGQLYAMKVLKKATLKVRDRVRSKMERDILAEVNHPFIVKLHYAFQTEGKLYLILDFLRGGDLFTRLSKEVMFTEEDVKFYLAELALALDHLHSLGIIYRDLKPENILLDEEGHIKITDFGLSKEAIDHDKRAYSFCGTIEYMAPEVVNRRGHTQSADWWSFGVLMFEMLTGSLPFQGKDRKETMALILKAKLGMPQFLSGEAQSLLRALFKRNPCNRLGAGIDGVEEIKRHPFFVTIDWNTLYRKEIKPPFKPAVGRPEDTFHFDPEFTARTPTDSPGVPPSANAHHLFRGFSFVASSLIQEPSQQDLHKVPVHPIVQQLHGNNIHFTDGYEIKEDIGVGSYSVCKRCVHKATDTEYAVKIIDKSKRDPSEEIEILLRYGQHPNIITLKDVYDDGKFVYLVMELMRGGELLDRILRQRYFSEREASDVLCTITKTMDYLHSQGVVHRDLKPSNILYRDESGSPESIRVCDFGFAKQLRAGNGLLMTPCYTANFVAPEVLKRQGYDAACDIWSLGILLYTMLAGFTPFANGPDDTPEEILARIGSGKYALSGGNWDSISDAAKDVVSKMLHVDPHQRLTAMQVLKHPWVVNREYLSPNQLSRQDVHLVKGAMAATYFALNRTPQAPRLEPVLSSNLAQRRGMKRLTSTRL
The target of test [6] is Serine/threonine-protein kinase N1 (Homo sapiens) (UniProt Q16512). The test can be described thus: Inhibition of human PKN1/PRK1 using KKLNRTLSVA as substrate at 1 uM in presence of 32P-ATP by Hotspot assay relative to control; values are per cent of control.
Sequence of Serine/threonine-protein kinase N1 (Homo sapiens) (Q16512 2-942 limits assumed): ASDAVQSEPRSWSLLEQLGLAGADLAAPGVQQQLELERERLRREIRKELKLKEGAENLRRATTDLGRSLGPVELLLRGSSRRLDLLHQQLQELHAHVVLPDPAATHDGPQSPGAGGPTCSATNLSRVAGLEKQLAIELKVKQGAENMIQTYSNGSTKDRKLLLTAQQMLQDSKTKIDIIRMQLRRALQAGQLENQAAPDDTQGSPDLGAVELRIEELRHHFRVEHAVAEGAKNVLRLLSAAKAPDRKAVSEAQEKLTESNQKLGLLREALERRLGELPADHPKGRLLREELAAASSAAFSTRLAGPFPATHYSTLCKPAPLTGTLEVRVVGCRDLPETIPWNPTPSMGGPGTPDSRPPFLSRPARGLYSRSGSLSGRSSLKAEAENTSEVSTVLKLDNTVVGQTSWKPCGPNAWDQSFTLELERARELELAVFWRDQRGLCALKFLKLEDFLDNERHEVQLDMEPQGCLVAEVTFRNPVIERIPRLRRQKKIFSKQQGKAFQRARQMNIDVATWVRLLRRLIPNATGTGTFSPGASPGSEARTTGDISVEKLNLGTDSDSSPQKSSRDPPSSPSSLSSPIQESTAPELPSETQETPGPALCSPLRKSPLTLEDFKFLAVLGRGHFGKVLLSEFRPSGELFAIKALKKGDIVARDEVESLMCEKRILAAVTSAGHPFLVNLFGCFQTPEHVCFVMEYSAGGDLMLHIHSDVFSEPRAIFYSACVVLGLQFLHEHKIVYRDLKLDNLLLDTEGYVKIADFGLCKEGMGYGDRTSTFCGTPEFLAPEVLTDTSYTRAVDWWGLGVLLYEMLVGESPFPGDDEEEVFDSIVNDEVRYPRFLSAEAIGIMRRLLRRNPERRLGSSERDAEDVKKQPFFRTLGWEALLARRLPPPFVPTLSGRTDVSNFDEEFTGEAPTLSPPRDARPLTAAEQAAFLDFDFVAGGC
Test [7] has as its target SRSF protein kinase 3 (Homo sapiens) (UniProt Q9UPE1). The test can be described thus: Inhibition of human MSSK1/STK23 using GRSRSRSRSR as substrate at 1 uM in presence of 32P-ATP by Hotspot assay relative to control; values are per cent of control.
Test [8] concerns the target Tyrosine-protein kinase receptor UFO (Homo sapiens) (UniProt P30530). The test can be described thus: Inhibition of human AXL using poly[Glu:Tyr] (4:1) as substrate at 1 uM in presence of 32P-ATP by Hotspot assay relative to control; values are per cent of control.
In test [9] the target is Macrophage colony-stimulating factor 1 receptor (Homo sapiens) (UniProt P07333). The test can be described thus: Inhibition of human FMS using poly[Glu:Tyr] (4:1) as substrate at 1 uM in presence of 32P-ATP by Hotspot assay relative to control; values are per cent of control.
Sequence of Macrophage colony-stimulating factor 1 receptor (Homo sapiens) (P07333 whole entry): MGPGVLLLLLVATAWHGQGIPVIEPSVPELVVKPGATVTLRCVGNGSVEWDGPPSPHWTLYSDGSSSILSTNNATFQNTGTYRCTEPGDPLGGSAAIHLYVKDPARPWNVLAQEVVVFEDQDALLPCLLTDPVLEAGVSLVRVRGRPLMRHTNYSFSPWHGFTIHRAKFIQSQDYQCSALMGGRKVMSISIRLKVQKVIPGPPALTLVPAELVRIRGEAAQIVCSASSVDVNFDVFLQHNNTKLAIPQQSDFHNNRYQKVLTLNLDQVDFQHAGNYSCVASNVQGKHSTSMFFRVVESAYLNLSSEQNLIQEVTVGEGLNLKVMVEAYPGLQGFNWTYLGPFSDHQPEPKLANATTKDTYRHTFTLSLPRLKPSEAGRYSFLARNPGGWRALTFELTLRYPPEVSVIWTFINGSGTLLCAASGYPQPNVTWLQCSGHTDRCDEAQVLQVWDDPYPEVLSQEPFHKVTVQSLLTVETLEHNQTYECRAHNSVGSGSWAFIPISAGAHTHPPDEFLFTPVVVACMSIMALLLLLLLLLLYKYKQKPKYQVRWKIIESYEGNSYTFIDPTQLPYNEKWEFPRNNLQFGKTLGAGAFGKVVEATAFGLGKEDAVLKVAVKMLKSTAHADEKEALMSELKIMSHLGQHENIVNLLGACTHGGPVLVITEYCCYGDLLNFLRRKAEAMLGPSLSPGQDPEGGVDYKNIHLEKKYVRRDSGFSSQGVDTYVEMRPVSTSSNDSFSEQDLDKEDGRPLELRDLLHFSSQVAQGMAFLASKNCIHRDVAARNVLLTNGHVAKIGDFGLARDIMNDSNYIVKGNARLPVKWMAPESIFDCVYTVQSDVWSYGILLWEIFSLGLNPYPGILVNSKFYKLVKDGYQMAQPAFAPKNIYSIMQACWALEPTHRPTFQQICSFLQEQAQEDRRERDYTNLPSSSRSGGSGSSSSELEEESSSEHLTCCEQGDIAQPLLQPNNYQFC
The species named for a further test is Homo sapiens. The test can be described thus: Inhibition of human CDK2/cyclin A using RB Protein as substrate at 1 uM in presence of 32P-ATP by Hotspot assay relative to control; values are per cent of control.
In test [10] the target is Dual specificity protein kinase CLK1 (Homo sapiens) (UniProt P49759). The test can be described thus: Inhibition of human CLK1 using myelin basic protein as substrate at 1 uM in presence of 32P-ATP by Hotspot assay relative to control; values are per cent of control.
Sequence of Dual specificity protein kinase CLK1 (Homo sapiens) (P49759 whole entry, looked up): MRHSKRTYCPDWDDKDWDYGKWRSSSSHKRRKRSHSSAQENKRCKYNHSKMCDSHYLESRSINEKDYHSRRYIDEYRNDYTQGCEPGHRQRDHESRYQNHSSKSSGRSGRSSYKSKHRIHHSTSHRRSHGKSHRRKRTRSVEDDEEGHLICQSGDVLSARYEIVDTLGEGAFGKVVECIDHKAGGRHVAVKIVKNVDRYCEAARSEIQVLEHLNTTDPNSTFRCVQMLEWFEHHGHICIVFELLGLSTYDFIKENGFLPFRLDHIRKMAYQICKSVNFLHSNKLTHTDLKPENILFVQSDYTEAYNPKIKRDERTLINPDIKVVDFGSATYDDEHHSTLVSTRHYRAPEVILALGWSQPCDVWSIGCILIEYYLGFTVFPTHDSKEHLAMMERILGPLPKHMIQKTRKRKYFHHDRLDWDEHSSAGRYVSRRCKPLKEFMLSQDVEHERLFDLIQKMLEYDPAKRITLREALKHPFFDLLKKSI
Test [11] has as its target Serine/threonine-protein kinase 16 (Homo sapiens) (UniProt O75716). The test can be described thus: Inhibition of human STK16 using myelin basic protein as substrate at 1 uM in presence of 32P-ATP by Hotspot assay relative to control; values are per cent of control.
Test [12] concerns the target Calcium/calmodulin-dependent protein kinase kinase 1 (Homo sapiens) (UniProt Q8N5S9). The test can be described thus: Inhibition of human CAMKK1 using myelin basic protein as substrate at 1 uM in presence of 32P-ATP by Hotspot assay relative to control; values are per cent of control.
For test [13], the target named is T1, Tyrosine-protein kinase receptor TYRO3 (Homo sapiens) (UniProt Q06418).
T1 sequence (whole entry): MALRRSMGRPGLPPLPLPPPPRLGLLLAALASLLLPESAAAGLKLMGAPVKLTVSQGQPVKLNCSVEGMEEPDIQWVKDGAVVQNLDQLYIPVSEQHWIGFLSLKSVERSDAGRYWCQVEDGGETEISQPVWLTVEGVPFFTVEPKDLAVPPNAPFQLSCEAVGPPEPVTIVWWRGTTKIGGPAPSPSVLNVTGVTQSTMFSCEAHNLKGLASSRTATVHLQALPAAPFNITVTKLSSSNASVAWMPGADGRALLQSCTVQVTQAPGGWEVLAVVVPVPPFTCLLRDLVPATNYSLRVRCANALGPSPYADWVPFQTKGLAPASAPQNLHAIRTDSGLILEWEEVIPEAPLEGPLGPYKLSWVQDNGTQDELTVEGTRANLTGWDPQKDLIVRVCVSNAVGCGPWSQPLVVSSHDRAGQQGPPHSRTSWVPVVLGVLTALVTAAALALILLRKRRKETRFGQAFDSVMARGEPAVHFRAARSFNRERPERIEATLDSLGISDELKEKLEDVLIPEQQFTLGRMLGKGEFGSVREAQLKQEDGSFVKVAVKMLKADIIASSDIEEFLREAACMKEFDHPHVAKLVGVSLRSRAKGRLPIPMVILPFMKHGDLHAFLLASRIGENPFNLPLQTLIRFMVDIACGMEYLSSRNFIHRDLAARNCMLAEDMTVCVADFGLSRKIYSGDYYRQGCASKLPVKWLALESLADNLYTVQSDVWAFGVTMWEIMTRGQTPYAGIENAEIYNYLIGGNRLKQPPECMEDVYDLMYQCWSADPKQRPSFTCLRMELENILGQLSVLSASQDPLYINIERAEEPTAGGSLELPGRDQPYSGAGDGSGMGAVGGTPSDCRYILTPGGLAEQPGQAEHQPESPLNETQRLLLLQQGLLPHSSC
The test can be described thus: Inhibition of human TYRO3/SKY using poly[Glu:Tyr] (4:1) as substrate at 1 uM in presence of 32P-ATP by Hotspot assay relative to control; values are per cent of control.

Structures are written as SMILES. Activity calls are given as the source filed them. No cut-off for these calls is given here.

Sequence of Dual specificity mitogen-activated protein kinase kinase 1 (Homo sapiens) (Q02750 whole entry): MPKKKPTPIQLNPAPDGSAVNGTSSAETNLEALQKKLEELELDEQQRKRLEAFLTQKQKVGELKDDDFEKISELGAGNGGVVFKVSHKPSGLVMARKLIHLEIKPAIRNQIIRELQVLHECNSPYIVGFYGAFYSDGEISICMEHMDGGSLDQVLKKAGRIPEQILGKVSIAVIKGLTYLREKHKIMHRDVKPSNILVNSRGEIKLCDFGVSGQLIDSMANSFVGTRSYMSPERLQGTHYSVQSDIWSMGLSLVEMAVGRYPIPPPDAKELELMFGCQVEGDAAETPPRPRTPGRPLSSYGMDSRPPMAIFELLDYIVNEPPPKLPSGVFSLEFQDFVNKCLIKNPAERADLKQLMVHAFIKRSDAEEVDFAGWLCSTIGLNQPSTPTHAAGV
Sequence of Tyrosine-protein kinase receptor UFO (Homo sapiens) (P30530 whole entry): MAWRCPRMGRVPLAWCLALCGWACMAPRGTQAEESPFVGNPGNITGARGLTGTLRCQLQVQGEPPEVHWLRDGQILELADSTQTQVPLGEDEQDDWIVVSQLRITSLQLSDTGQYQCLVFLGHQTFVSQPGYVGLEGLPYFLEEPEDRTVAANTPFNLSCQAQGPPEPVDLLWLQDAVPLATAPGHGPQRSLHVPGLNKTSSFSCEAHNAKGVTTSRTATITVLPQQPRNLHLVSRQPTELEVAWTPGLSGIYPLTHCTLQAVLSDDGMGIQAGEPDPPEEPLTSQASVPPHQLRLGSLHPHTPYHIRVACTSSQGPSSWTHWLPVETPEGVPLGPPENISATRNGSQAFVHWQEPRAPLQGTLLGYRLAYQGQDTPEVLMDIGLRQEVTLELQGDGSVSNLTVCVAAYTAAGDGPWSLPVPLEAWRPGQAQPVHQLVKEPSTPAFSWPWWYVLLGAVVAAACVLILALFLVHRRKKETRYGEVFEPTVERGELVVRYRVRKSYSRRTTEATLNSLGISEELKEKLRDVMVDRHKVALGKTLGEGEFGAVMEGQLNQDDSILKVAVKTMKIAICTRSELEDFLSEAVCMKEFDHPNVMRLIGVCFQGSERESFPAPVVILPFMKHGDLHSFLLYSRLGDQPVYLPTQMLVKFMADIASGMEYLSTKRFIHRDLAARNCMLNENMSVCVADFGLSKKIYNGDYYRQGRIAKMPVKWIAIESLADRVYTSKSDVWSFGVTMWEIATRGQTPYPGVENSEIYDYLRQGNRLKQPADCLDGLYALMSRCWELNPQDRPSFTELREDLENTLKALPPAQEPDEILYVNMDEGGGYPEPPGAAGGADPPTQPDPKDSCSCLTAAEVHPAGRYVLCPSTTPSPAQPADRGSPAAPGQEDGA

As for `Cc1cc(-c2cnc(N)c3c(-c4ccc5scnc5c4)csc23)n(C)n1`, the inhibition result in the test with Neutrophil is “Active”. Besides, the residual activity is 59.7% in test [1]; 96% in test [2]; 54.7% in test [3]; 106% in test [4]; 103% in test [5]; 96.7% in test [6]. Moreover, the residual activity is 93.7% in test [7]; 101% in [8]; 19.4% in test [9]; 86% in the test listed under Homo sapiens; 74.7% in test [10]; 97.6% in [11]. The residual activity in test [12] amounted to 98.6%; in [13], 100%.
For the molecule `CC(C)S(=O)(=O)c1ccc2nccc(Nc3ccc4scnc4c3)c2c1`, the inhibition result with Neutrophil is “Active”. Moreover, the residual activity is 102% in test [1]; 104% in [2]; 92.4% in test [3]; 98.5% in test [4]; 96% in test [5]; 95.3% in test [6]. Moreover, the residual activity in [7] was 102%; in test [8] it was 101%; in test [9], 108%; in the test filed under Homo sapiens, 97.2%; in [10], 97.6%; in test [11], 98.8%. Moreover, the residual activity in test [12] was 99.3%; in test [13] it was 84.6%.
For the molecule `CNC(=O)c1ccc2c(c1)ncn2-c1ccc(CC(=O)OC(C)(C)C)cc1`, the inhibition result in the test with Neutrophil is “Active”. Also, the residual activity in test [1] amounted to 86.8%; in [2], 104%; in test [3], 75.6%; in [4], 89.9%; in test [5], 97.1%; in [6], 97.7%. Also, the residual activity was determined as 101% in test [7]; 92.6% in [8]; 91.8% in [9]; 101% in the test filed under Homo sapiens; 95.4% in [10]; 85.4% in test [11]. Moreover, the residual activity in test [12] stood at 77.3%; in test [13], 99.3%.
